Measured values from article PMC6138639, “The ZZ-type zinc finger of ZZZ3 modulates the ATAC complex-mediated histone acetylation and gene activation” (Nature Communications, 2018).
Changes are numbered by the printed parent chain.

Key:
ZZZ3 ZZ domain D824A = biological target: T1, ZZZ3 ZZ domain D824A (Homo sapiens, UniProt Q8IYH5, D824A); experiment: 1H,15N HSQC NMR titration of ZZZ3 ZZ D824A mutant with histone peptides; assay type: binding; details: measured by NMR (1H,15N HSQC titration); 0.1 mM 15N-labeled protein; 298 K
T1 construct: GST (N, cleaved yes); made in house; host or cells: E. coli BL21 (DE3) RIL
T1 sequence (Q8IYH5 818-877 D824A limits assumed): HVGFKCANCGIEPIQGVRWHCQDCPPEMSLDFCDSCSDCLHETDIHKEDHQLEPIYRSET
Experimental: (§1) In total, 0.1 mM uniformly ^15N-labeled WT or mutated ZZZ3-ZZ was used in NMR titrations. Binding was characterized by monitoring chemical shift changes in the proteins induced by histone peptides (synthesized by SynPeptide). Dissociation constant (Kd) was determined by applying PCA to the ^1H,^15N HSQC titration spectra in TREND[30]. Each binding isotherm was fitted using the following equation: pbound=∣∣PC1∣∣=L+P+Kd-L+P+Kd^2-4[P][L]/2[P] where [L] is the concentration of the histone peptide, [P] is the concentration of ZZ, pbound is the fraction of protein bound to a ligand, and PC1 is the normalized principal component, obtained by TREND, that indicates the change in the population of the bound state. The errors of the Kd value are the fitting uncertainties from nonlinear least-squares fits in Kaleidagraph.

[1] = biological target: T2, ZZZ3 ZZ domain (a.a. 800–903) (Homo sapiens, UniProt Q8IYH5); experiment: Microscale thermophoresis (MST) displacement binding assay; details: displacement of 80 nM fluorescein-labeled H3 (1–12) from 5 μM ZZ by unlabeled peptide; 20 mM Tris–HCl pH 7.0, 150 mM NaCl, 3 mM DTT; H3 triplicates, H3K4ac duplicates
T2 construct: The samples containing 1.0 µM ZZZ3 ZZ (aa 800–903); GST (N, cleaved yes); made in house; host or cells: E. coli BL21 (DE3) RIL
T2 sequence (Q8IYH5 800-903): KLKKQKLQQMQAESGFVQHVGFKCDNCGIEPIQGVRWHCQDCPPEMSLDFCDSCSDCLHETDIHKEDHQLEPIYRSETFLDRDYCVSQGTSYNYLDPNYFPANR
Experimental: The MST experiments were performed using a Monolith NT.115 instrument (NanoTemper) as described previously. All experiments were performed with the purified ZZ domain (a.a. 800-903) in a buffer containing 20 mM Tris-HCl (pH 7.0), 150 mM NaCl, and 3 mM DTT. The final concentration of the C-terminal fluorescein-labeled histone H3 peptide (1-12, KE BIOCHEM) was kept at 80 nM. Dissociation constants for the interaction between ZZ with unlabeled peptides H3 (1-12) and H3K4ac (1-12) were measured using a displacement assay in which increasing amounts of unlabeled peptides were added into a preformed ZZ:H3-FAM complex prepared by supplementing 5 μM ZZ into each sample. The measurements were performed at 50% LED and 40% MST power with 3-s laser on time and 22 s off time. For all measurements, samples were loaded into premium capillaries and 1400-1700 counts were obtained for the fluorescence intensity. The Kd and IC50 values were determined with the MO.Affinity Analysis software (NanoTemper Technologies GmbH), using two independent MST measurements. […] The Kd value is the dissociation constant of labeled H3 peptide determined in the direct binding experiment described above. […]

[2] = biological target: T3, ZZZ3 ZZ domain (aa 800–903), WT (Homo sapiens, UniProt Q8IYH5); experiment: Tryptophan fluorescence binding of histone peptides to WT ZZZ3 ZZ domain; details: for Kd: 1.0 µM ZZZ3 ZZ (aa 800–903), 25 °C, 20 mM Tris–HCl pH 7.2, 150 mM NaCl, 1 mM DTT, mean ± SD of three experiments
T3 construct: The samples containing 1.0 µM ZZZ3 ZZ (aa 800–903); GST (N, cleaved yes); made in house; host or cells: E. coli BL21 (DE3) RIL
T3 sequence (Q8IYH5 800-903): T2 sequence (Q8IYH5 800-903)
Experimental: Spectra were recorded at 25 °C on a Fluoromax-3 spectrofluorometer (HORIBA). The samples containing 1.0 µM ZZZ3 ZZ (aa 800–903) and progressively increasing concentrations of the histone peptide were excited at 295 nm. Experiments were performed in buffer containing 20 mM Tris–HCl (pH 7.2), 150 mM NaCl, and 1 mM DTT, with the exception of experiments shown in Supplementary Fig. 3b, which were performed in 100 mM NaCl buffer. Emission spectra were recorded over a range of wavelengths between 330 and 360 nm with a 0.5-nm step size and a 1-s integration time and averaged over three scans. The Kd values were determined using a nonlinear least-squares analysis and the equation: ΔI=ΔImaxL+P+Kd-L+P+Kd^2-4[P][L]/2[P] where [L] is the concentration of the histone peptide, [P] is the concentration of ZZZ3 ZZ domain, ΔI is the observed change of signal intensity, and ΔImax is the difference in signal intensity of the free and bound states of the ZZ domain. The Kd value was averaged over three separate experiments, with error calculated as the standard deviation between the runs.

ZZZ3 ZZ domain D848A = biological target: T4, ZZZ3 ZZ domain D848A (Homo sapiens, UniProt Q8IYH5, D848A); experiment: 1H,15N HSQC NMR titration of ZZZ3 ZZ D848A mutant with histone peptides; assay type: binding; details: measured by NMR (1H,15N HSQC titration); 0.1 mM 15N-labeled protein; 298 K
T4 construct: GST (N, cleaved yes); made in house; host or cells: E. coli BL21 (DE3) RIL
T4 sequence (Q8IYH5 818-877 D848A limits assumed): T1 sequence (Q8IYH5 818-877 D824A limits assumed) with A7D, D31A
Experimental: as §1

ZZZ3 ZZ domain = biological target: T5, ZZZ3 ZZ domain (Homo sapiens, UniProt Q8IYH5); experiment: Binding of non-H3-like peptide to ZZZ3 ZZ domain (Supplementary Fig. 2i); details: N-terminal Ala1 added to a non-H3-like peptide
T5 construct: made in house; host or cells: E. coli BL21 (DE3) RIL
T5 sequence (Q8IYH5 818-877 limits assumed): T1 sequence (Q8IYH5 818-877 D824A limits assumed) with A7D

ATAC complex = biological target: T6, ATAC complex (Homo sapiens, UniProt Q8IYH5); experiment: In vitro HAT assay of purified ATAC complex with histone peptides or mononucleosomes; assay type: biochemical; details: 1 μg peptide, 0.1 mM acetyl-CoA, 37 °C, western blot
T6 construct: expressed in transfected cells; nuclear extract, M2-agarose, eluted with triple-FLAG peptide
Experimental: Nuclear extracts were prepared from stable cells using a standard protocol. Briefly, approximately 2 mg of nuclear extract was incubated with 25 µl of M2-agarose beads (Sigma) overnight at 4 °C. The beads were washed four times with high-salt wash buffer (10 mM HEPES, pH 7.9, 25% glycerol, 1.5 mM MgCl2, 300 mM KCl, and 0.1% Triton X-100), followed by two washes with low-salt wash buffer (10 mM HEPES, pH 7.9, 25% glycerol, 1.5 mM MgCl2, 100 mM KCl, and 0.1% Triton X-100). Elution was achieved by two consecutive incubations of the beads with 0.5 mg/ml triple-FLAG peptide (Sigma) in 200 µl of low-salt wash buffer. All buffers contained phenylmethylsulfonyl fluoride and protease inhibitor cocktail (Roche).
Purified complexes were incubated for indicated times at 37 °C with peptides (1 μg) or mononucleosomes (10 μg) and 0.1 mM acetyl-CoA in HAT reaction buffer (50 mM Tris, pH 8.0, 0.1 mM EDTA, 10% glycerol, 1 mM PMSF, and 1 mM DTT) in a total volume of 50 μL. Reactions were quenched by flash-freezing in liquid nitrogen and then analyzed by SDS-PAGE and western blot. Uncropped western blots are shown in Supplementary Figure 11.

| Compound | Kd, ZZZ3 ZZ domain D824A (ZZZ3 ZZ domain D824A) | Kd [1] | Kd [2] | HAT activity of the ATAC complex on the peptide substrate (ATAC complex) | other results |
| --- | --- | --- | --- | --- | --- |
| CC(=O)NCCCC[C@H](NC(=O)[C@@H](NC(=O)[C@H](CCCNC(=N)N)NC(=O)[C@H](C)N)[C@@H](C)O)C(=O)N[C@@H](CCC(N)=O)C(=O)N[C@H](C(=O)N[C@@H](C)C(=O)N[C@@H](CCCNC(=N)N)C(=O)N[C@@H](CCCCN)C(=O)N[C@@H](CO)C(=O)N[C@H](C(=O)NCC(=O)O)[C@@H](C)O)[C@@H](C)O [H3K4ac] | No binding | 5.5 µM | 8.2 µM | – | Fold enhancement of ZZ association over the unmodified H3 peptide ([2]; Kd 8.2 μM versus 29 μM): ~ 3 fold |
| C[C@H](N)C(=O)N[C@@H](CCCNC(=N)N)C(=O)N[C@H](C(=O)N[C@@H](CCCC[N+](C)(C)C)C(=O)N[C@@H](CCC(N)=O)C(=O)N[C@H](C(=O)N[C@@H](C)C(=O)N[C@@H](CCCNC(=N)N)C(=O)N[C@@H](CCCCN)C(=O)N[C@@H](CO)C(=O)N[C@H](C(=O)NCC(=O)O)[C@@H](C)O)[C@@H](C)O)[C@@H](C)O [H3K4me3] | – | – | – | – | Kd ([2]; SD): 22 ± 6 µM |
| C[C@H](N)C(=O)N[C@@H](CCCNC(=N)N)C(=O)N[C@H](C(=O)N[C@@H](CCCCN)C(=O)N[C@@H](CCC(N)=O)C(=O)N[C@H](C(=O)N[C@@H](C)C(=O)N[C@@H](CCCNC(=N)N)C(=O)N[C@@H](CCCCN)C(=O)N[C@@H](CO)C(=O)N[C@H](C(=O)NCC(=O)O)[C@@H](C)O)[C@@H](C)O)[C@@H](C)O [H3] | No binding | 18 µM | 29 µM | – | Kd, ZZZ3 ZZ domain D848A (ZZZ3 ZZ domain D848A): No binding |
| AGSGSG [non-H3-like peptide with an added N-terminal Ala1] | – | – | – | – | Binding to the ZZZ3 ZZ domain (ZZZ3 ZZ domain): insufficient to bind |
| H3 (3–33): biotinylated histone H3 peptide lacking the first two amino acids, HAT substrate | – | – | – | abolishes the HAT activity | – |
| Lys4-acetylated H3 peptide: Lys4-acetylated H3 (1-22) peptide used as HAT substrate | – | – | – | better substrate | – |
